Data reported in ChEMBL document CHEMBL3885881, “DrugMatrix”.

Species: Rattus norvegicus
Assay: DrugMatrix - Regimen: Daily Repeat
Format: toxicity, organism-based, Sprague-Dawley
Set-up: regimen Daily Repeat, gender Male, age 6-8 weeks
Conditions: in vivo, po, route oral GAVAGE, vehicle 100 % WATER; for ABSOLUTE BASOPHIL / ABSOLUTE EOSINOPHIL / ABSOLUTE LYMPHOCYTE / ABSOLUTE MONOCYTE / ABSOLUTE SEGMENTED NEUTROPHIL / BASOPHIL / EOSINOPHIL / ERYTHROCYTE COUNT / HEMATOCRIT / HEMOGLOBIN / LEUKOCYTE COUNT / LYMPHOCYTE / MEAN CORPUSCULAR HEMOGLOBIN / MEAN CORPUSCULAR HEMOGLOBIN CONCENTRATION / NEUTROPHIL / NUCLEATED RED BLOOD CELLS / PLATELET COUNT: tissue Blood; for ALANINE AMINOTRANSFERASE / ALBUMIN / ALKALINE PHOSPHATASE / ASPARTATE AMINOTRANSFERASE / BLOOD UREA NITROGEN / CARBON DIOXIDE / CHLORIDE / CREATINE PHOSPHOKINASE / CREATININE / GLUCOSE / LACTATE DEHYDROGENASE / LIPASE / PHOSPHORUS / POTASSIUM / SODIUM / TOTAL BILIRUBIN / TOTAL PROTEIN / URIC ACID / CHOLESTEROL: tissue Plasma
[1] = 0 mg/kg, 72 h, dose level Control, time 3 day
[2] = 0 mg/kg, 120 h, dose level Control, time 5 day
[3] = 94 mg/kg, 72 h, dose level High, time 3 day

CN1[C@@H]2CC[C@H]1C[C@@H](OC(=O)C(CO)c1ccccc1)C2 (some centres not stated) [ATROPINE]
ABSOLUTE BASOPHIL [1]: 0 CELLS/uL | ABSOLUTE EOSINOPHIL [1]: 33.67 CELLS/uL | ABSOLUTE LYMPHOCYTE [1]: 11257.17 CELLS/uL | ABSOLUTE MONOCYTE [1]: 72.17 CELLS/uL | ABSOLUTE SEGMENTED NEUTROPHIL [1]: 1220.33 CELLS/uL | BASOPHIL [1]: 0% | EOSINOPHIL [1]: 0.33% | ERYTHROCYTE COUNT [1]: 5 x10E6/uL | HEMATOCRIT [1]: 32.62% | HEMOGLOBIN [1]: 12.83 G/DL | LEUKOCYTE COUNT [1]: 12.58 x10E3/uL | LYMPHOCYTE [1]: 89% | MEAN CORPUSCULAR HEMOGLOBIN [1]: 25.67 pg | MEAN CORPUSCULAR HEMOGLOBIN CONCENTRATION [1]: 39.35 G/DL | NEUTROPHIL [1]: 10% | NUCLEATED RED BLOOD CELLS [1]: 0 /100WBC | PLATELET COUNT [1]: 1162.5 x10E3/uL | ALANINE AMINOTRANSFERASE [1]: 45.33 u/L | ALBUMIN [1]: 3.95 G/DL | ALKALINE PHOSPHATASE [1]: 356.17 u/L | ASPARTATE AMINOTRANSFERASE [1]: 81 u/L | BLOOD UREA NITROGEN [1]: 11 mg/dL | CARBON DIOXIDE [1]: 29.83 mmol/L | CHLORIDE [1]: 97.8 MEQ/L | CREATINE PHOSPHOKINASE [1]: 211.33 u/L | CREATININE [1]: 0.11 mg/dL | GLUCOSE [1]: 164.67 mg/dL | LACTATE DEHYDROGENASE [1]: 143.17 u/L | LIPASE [1]: 10.17 u/L | PHOSPHORUS [1]: 10.88 mg/dL | POTASSIUM [1]: 6.08 MEQ/L | SODIUM [1]: 141.54 MEQ/L | TOTAL BILIRUBIN [1]: 0.23 mg/dL | TOTAL PROTEIN [1]: 5.65 G/DL | URIC ACID [1]: 1 mg/dL | ABSOLUTE BASOPHIL [2]: 0 CELLS/uL | ABSOLUTE EOSINOPHIL [2]: 48.67 CELLS/uL | ABSOLUTE LYMPHOCYTE [2]: 9267.83 CELLS/uL | ABSOLUTE MONOCYTE [2]: 194.33 CELLS/uL | ABSOLUTE SEGMENTED NEUTROPHIL [2]: 572.5 CELLS/uL | BASOPHIL [2]: 0% | EOSINOPHIL [2]: 0.33% | ERYTHROCYTE COUNT [2]: 5.41 x10E6/uL | HEMATOCRIT [2]: 36.17% | HEMOGLOBIN [2]: 13.9 G/DL | LEUKOCYTE COUNT [2]: 10.08 x10E3/uL | LYMPHOCYTE [2]: 92.17% | MEAN CORPUSCULAR HEMOGLOBIN [2]: 25.73 pg | MEAN CORPUSCULAR HEMOGLOBIN CONCENTRATION [2]: 38.45 G/DL | NEUTROPHIL [2]: 5.67% | NUCLEATED RED BLOOD CELLS [2]: 0.33 /100WBC | PLATELET COUNT [2]: 1122.33 x10E3/uL | ALANINE AMINOTRANSFERASE [2]: 52.83 u/L | ALBUMIN [2]: 4.12 G/DL | ALKALINE PHOSPHATASE [2]: 367.33 u/L | ASPARTATE AMINOTRANSFERASE [2]: 88 u/L | BLOOD UREA NITROGEN [2]: 12.67 mg/dL | CARBON DIOXIDE [2]: 33.67 mmol/L | CHLORIDE [2]: 97 MEQ/L | CHOLESTEROL [2]: 67.5 mg/dL | CREATINE PHOSPHOKINASE [2]: 358.67 u/L | CREATININE [2]: 0.14 mg/dL | GLUCOSE [2]: 152.33 mg/dL | LACTATE DEHYDROGENASE [2]: 180 u/L | LIPASE [2]: 10.5 u/L | PHOSPHORUS [2]: 10.63 mg/dL | POTASSIUM [2]: 5.99 MEQ/L | SODIUM [2]: 141.85 MEQ/L | TOTAL BILIRUBIN [2]: 0.2 mg/dL | TOTAL PROTEIN [2]: 6.18 G/DL | URIC ACID [2]: 0.52 mg/dL | ABSOLUTE BASOPHIL [3]: 0 CELLS/uL | ABSOLUTE EOSINOPHIL [3]: 0 CELLS/uL | ABSOLUTE LYMPHOCYTE [3]: 12944 CELLS/uL | ABSOLUTE MONOCYTE [3]: 33.33 CELLS/uL | ABSOLUTE SEGMENTED NEUTROPHIL [3]: 789.33 CELLS/uL | BASOPHIL [3]: 0% | EOSINOPHIL [3]: 0% | ERYTHROCYTE COUNT [3]: 5.37 x10E6/uL | HEMATOCRIT [3]: 33.77% | HEMOGLOBIN [3]: 13.4 G/DL | LEUKOCYTE COUNT [3]: 13.77 x10E3/uL | LYMPHOCYTE [3]: 93.67% | MEAN CORPUSCULAR HEMOGLOBIN [3]: 24.93 pg | MEAN CORPUSCULAR HEMOGLOBIN CONCENTRATION [3]: 39.67 G/DL | NEUTROPHIL [3]: 6% | NUCLEATED RED BLOOD CELLS [3]: 0 /100WBC | PLATELET COUNT [3]: 1031.67 x10E3/uL | ALANINE AMINOTRANSFERASE [3]: 59.33 u/L | ALBUMIN [3]: 4.03 G/DL | ALKALINE PHOSPHATASE [3]: 322.67 u/L | ASPARTATE AMINOTRANSFERASE [3]: 115 u/L | BLOOD UREA NITROGEN [3]: 11 mg/dL | CARBON DIOXIDE [3]: 26.33 mmol/L | CHLORIDE [3]: 102.5 MEQ/L | CHOLESTEROL [3]: 72.67 mg/dL | CREATINE PHOSPHOKINASE [3]: 681.33 u/L | CREATININE [3]: 0.13 mg/dL | GLUCOSE [3]: 149.67 mg/dL | LACTATE DEHYDROGENASE [3]: 237 u/L | LIPASE [3]: 10.67 u/L | PHOSPHORUS [3]: 9.43 mg/dL | POTASSIUM [3]: 5.53 MEQ/L | SODIUM [3]: 142.3 MEQ/L | TOTAL BILIRUBIN [3]: 0.3 mg/dL | TOTAL PROTEIN [3]: 5.6 G/DL | URIC ACID [3]: 1 mg/dL
